“Also recorded” adds a separate entry of the source. Read-outs that look alike come from different tables or passages of the source.
Tests used:
Hec50co cells [1] = experiment: Nuclear changes by Höechst staining; assay type: cell-based, human; settings: 72 h, 5 μM Mito6_TPP, 10 μM Mito6_isoq.; for Nucleus shape and chromatin condensation (Höechst staining): 20 μM Mito6_picol.
Procedure: (§1) Morphological changes in all cell lines were evaluated by phase-contrast microscopy (Eclipse TS100 Inverted Microscope, Nikon, Tokyo, Japan) and Giemsa staining. […] The cells were plated in 24-well plates with coverslips using the densities of 1 × 10^5 cells/well in Ishikawa and Hec50co and 2.5 × 10^5 cells/well in COV434 and HFF-1. After adherence, the cells were treated with Mito6_TPP (5 μM), Mito6_picol. (20 μM), or Mito6_isoq. (10 μM) and incubated at 37 °C with 5% CO2 for 72 h. For Giemsa staining, the cells were fixated with paraformaldehyde 4% in Phosphate Buffered Saline (PBS) for 15 min, stained with Giemsa solution for 30 min, mounted with DPX, and observed through bright field microscopy. For Höechst staining, the cells were incubated with 0.5 μg/mL Höechst 33342 in PBS for 20 min in the dark, mounted in Fluoroshield, and observed under a fluorescence microscope equipped with an excitation filter with maximum transmission at 360/400 nm. In both stainings, the cells were observed using the microscope Eclipse CI (Nikon, Japan) and the images were processed with Nikon NIS Elements Image Software (Nikon, Japan).

Ishikawa cells [2] = experiment: Nuclear changes by Höechst staining; assay type: cell-based, human; settings: 72 h, 5 μM Mito6_TPP, 10 μM Mito6_isoq.; for Nucleus shape and chromatin condensation (Höechst staining): 20 μM Mito6_picol.
Procedure: as §1

COV434 cells [3] = experiment: Nuclear changes by Höechst staining; assay type: cell-based, human; settings: COV434, 72 h, 5 μM Mito6_TPP, 10 μM Mito6_isoq.; for Nucleus shape and chromatin condensation (Höechst staining): 20 μM Mito6_picol.
Procedure: as §1

Ishikawa cells [4] = experiment: Cell morphology by Giemsa staining; assay type: cell-based, human; settings: 72 h, 5 μM Mito6_TPP, 20 μM Mito6_picol., 10 μM Mito6_isoq.
Procedure: as §1

COV434 cells [5] = experiment: Cell morphology by Giemsa staining; assay type: cell-based, human; settings: COV434, 72 h; 5 μM Mito6_TPP, 20 μM Mito6_picol., 10 μM Mito6_isoq.
Procedure: as §1

Hec50co cells [6] = experiment: Neutral red (NR) cell viability assay; assay type: cell-based; settings: Homo sapiens
Procedure: (§2) Experiments were performed using the following cell lines: Ishikawa, Hec50co, COV434, and HFF-1. The Ishikawa cell line (RRID: CVCL_2529) was established from an endometrial adenocarcinoma. The Hec50co cell line (RRID: CVCL_4Y59) consists of poorly differentiated endometrial tumor cells isolated from a patient with advanced disease. Both the Ishikawa and Hec50co cell lines were kindly provided by Dr. Kim K. Leslie (The University of New Mexico Health Sciences Center, Albuquerque, NM, USA). COV434 (RRID: CVCL_2010) were initially isolated from a patient diagnosed with a granulosa cell tumor but were recently classified as cells from a small-cell carcinoma of the ovary, hypercalcemic type.The COV434 cells were purchased from the European Collection of Authenticated Cell Cultures (ECACC) (#07071909). HFF-1 (RRID: CVCL_3285) is an immortalized human foreskin fibroblasts cell line, obtained from the American Type Culture Collection (ATCC), which was used as control, as they are non-tumorous cells. The Ishikawa and Hec50co cells were maintained in Dulbecco’s Modified Eagle Medium/F12 (DMEM/F12) supplemented with 5% Foetal Bovine Serum (FBS). COV434 cells were maintained in DMEM/F12 supplemented with 10% FBS. HFF-1 were maintained in Roswell Park Memorial Institute 1640 (RPMI 1640) supplemented with 10% FBS. All mediums were supplemented with 1% AB-AM and all cells were kept at 37 °C with 5% CO2. The treatment with the compounds was done in the respective cell medium supplemented with 2% FBS and 24 h after platting the cells in the culture medium with 5% FBS to allow their adherence.
(§3) The Ishikawa, Hec50co, COV434, and HFF-1 cell lines were plated at a density of 5 × 10^4 cells/well in transparent 96-well plates. After 24 h, the cells were treated with Mito6_TPP, Mito6_picol., or Mito6_isoq. (0.01–100 μM) and incubated at 37 °C with 5% CO2 for 24, 48, or 72 h. […] The conditions of the methylthiazolyldiphenyl-tetrazolium bromide (MTT) assay were adapted from the work of Banerjee et al.. Briefly, MTT was added to a final concentration of 0.5 mg/mL, and the cells were incubated for 3 h at 37 °C with 5% CO2. After the 3 h, purple MTT formazan crystals were dissolved by agitation for 15 min in a solution of DMSO/isopropanol (ratio 3:1) and quantified spectrophotometrically at 540 nm. The neutral red (NR) assay conditions were based on the work developed by Repetto et al.. Briefly, after the incubation time, cells were incubated with NR at 40 μg/mL in an FBS-free cell medium for 3 h. The cells were then incubated with a solution of 50% ethanol (96% v/v), 49% deionized water, and 1% glacial acetic acid, with shaking for 15 min. The NR extracted from the cells was measured at 540 nm. The LDH cytotoxicity assay was not performed on the HFF-1 cells due to the lack of evidence of cell death at the concentrations tested. After the incubation time, this assay was performed using a Thermo Scientific Pierce LDH Cytotoxicity Assay Kit according to the manufacturer’s instructions. For all assays, the absorbance was read using a BioTek Synergy HTX Multi-Mode Microplate Reader equipped with BioTek Gen5 Data Collection and Analysis Software (BioTek Instruments, Winooski, VT, USA).
(§4) Data were evaluated using the one- or two-way analysis of variance (ANOVA) test followed by Bonferroni’s test for multiple comparisons. The data presented was expressed as mean ± SEM (Standard Error of the Mean) of a minimum of three and a maximum of seven independent experiments performed in triplicate. Values of p < 0.05 were considered statistically significant. Half of the maximal effective concentration (EC50) values were estimated by interpolation of dose-response curves and reported as a mean with a 95% confidence interval (CI 95%). All statistical analysis was performed using GraphPad Prism Software 8.0 (GraphPad Software, Inc., San Diego, CA, USA). […]

Ishikawa cells [7] = experiment: Neutral red (NR) cell viability assay; assay type: cell-based; settings: Homo sapiens
Procedure: as §2, §3, §4

HFF-1 cells = experiment: Neutral red (NR) cell viability assay; assay type: cell-based; settings: Homo sapiens
Procedure: as §2, §3, §4

COV434 cells [8] = experiment: Neutral red (NR) cell viability assay; assay type: cell-based; settings: Homo sapiens
Procedure: as §2, §3, §4

[9] = 24 h, read-out: EC50 (decrease of viability), NR assay
[10] = 48 h, read-out: EC50 (decrease of viability), NR Assay
[11] = 72 h, read-out: EC50 (decrease of viability), NR assay
[12] = COV434, 24 hours of incubation, read-out: EC50 (decrease of viability), NR assay
[13] = COV434, 48 h of incubation, read-out: EC50 (decrease of viability), NR Assay
[14] = COV434, 72 hours of incubation, read-out: EC50 (decrease of viability), NR assay
[15] = Hec50co, 24 hours of incubation, read-out: EC50 (decrease of viability), NR assay
[16] = Hec50co, 48 h of incubation, read-out: EC50 (decrease of viability), NR Assay
[17] = Hec50co, 72 hours of incubation, read-out: EC50 (decrease of viability), NR assay
[18] = 24 hours of incubation, read-out: EC50 (decrease of viability), NR assay
[19] = 48 h of incubation, read-out: EC50 (decrease of viability), NR Assay
[20] = 72 hours of incubation, read-out: EC50 (decrease of viability), NR assay
[21] = HFF-1, 48 h of incubation, read-out: EC50 (decrease of viability), NR Assay

| SMILES | Nuclear fragmentation (Höechst staining) (Hec50co cells [1]) | Nucleus shape and chromatin condensation (Höechst staining) (Hec50co cells [1]) | Nuclear fragmentation (Höechst staining) (Ishikawa cells [2]) | Nucleus shape and chromatin condensation (Höechst staining) (Ishikawa cells [2]) | Nuclear fragmentation (Höechst staining) (COV434 cells [3]) | Nucleus shape and chromatin condensation (Höechst staining) (COV434 cells [3]) | Cell morphology changes (Giemsa staining) (Ishikawa cells [4]) | Cell morphology changes (Giemsa staining) (COV434 cells [5]) | EC50 (COV434 cells [8]; [12]) | EC50 (COV434 cells [8]; [13]) | EC50 (COV434 cells [8]; [14]) | EC50 (Hec50co cells [6]; [15]) | EC50 (Hec50co cells [6]; [16]) | EC50 (Hec50co cells [6]; [17]) | EC50 (Ishikawa cells [7]; [18]) | EC50 (Ishikawa cells [7]; [19]) | EC50 (Ishikawa cells [7]; [20]) | EC50 (HFF-1 cells; [21]) | also measured |
| --- | --- | --- | --- | --- | --- | --- | --- | --- | --- | --- | --- | --- | --- | --- | --- | --- | --- | --- | --- |
| O=C(/C=C/c1ccc(O)c(O)c1)NCCCCCCCCCC[P+](c1ccccc1)(c1ccccc1)c1ccccc1 [Mito6_TPP] | nuclear fragmentation visible | changes in the nucleus shape and the chromatin condensation | nuclear fragmentation visible | changes in the nucleus shape and the chromatin condensation | nuclear fragmentation visible | changes in the nucleus shape and the chromatin condensation | altered cell shapes and indications of chromatin condensation | altered cell shapes and indications of chromatin condensation | 13.6 µM | 9.11 µM | 4.01 µM |  |  |  |  |  |  |  | EC50 (Hec50co cells [6]; [9]): 53.6 µM; EC50 (Hec50co cells [6]; [10]): 35.4 µM; EC50 (Hec50co cells [6]; [11]): 23.9 µM; EC50 (Ishikawa cells [7]; [9]): 33.2 µM; EC50 (Ishikawa cells [7]; [10]): 15.7 µM; EC50 (Ishikawa cells [7]; [11]): 11.2 µM; EC50 (HFF-1 cells; HFF-1, 24 h, read-out: EC50 (decrease of viability), NR assay): 73.6 µM; EC50 (HFF-1 cells; HFF-1, 48 h, read-out: EC50 (decrease of viability), NR Assay): 57 µM; EC50 (HFF-1 cells; HFF-1, 72 h, read-out: EC50 (decrease of viability), NR assay): 45.1 µM |
| O=C(/C=C/c1ccc(O)c(O)c1)NCCCCCCCCCC[n+]1ccc2ccccc2c1 [Mito6_isoq.] | nuclear fragmentation visible | changes in the nucleus shape and the chromatin condensation | nuclear fragmentation visible | changes in the nucleus shape and the chromatin condensation | nuclear fragmentation visible | changes in the nucleus shape and the chromatin condensation | cell shape alterations | cell shape alterations; also recorded: indications of chromatin condensation | 51.6 µM | 40 µM | 30.8 µM | > 100 µM | 150 µM | 87.6 µM | 55.3 µM | 36.9 µM | 28.9 µM | 97 µM | EC50 (HFF-1 cells; HFF-1, 24 hours of incubation, read-out: EC50 (decrease of viability), NR assay): > 100 µM; EC50 (HFF-1 cells; HFF-1, 72 hours of incubation, read-out: EC50 (decrease of viability), NR assay): 68.6 µM |
| Cc1cc[n+](CCCCCCCCCCNC(=O)/C=C/c2ccc(O)c(O)c2)cc1 [Mito6_picol.] |  | did not induce any morphological changes |  | did not induce any morphological changes |  | did not induce any morphological changes | did not induce any morphological changes | did not induce any morphological changes | 87.8 µM | 62.5 µM | 34.2 µM | > 100 µM | 197 µM | 92 µM | > 100 µM | 84.4 µM | 59.4 µM | > 100 µM |  |

Reference: PMC9030827, “In Vitro Effects of Mitochondria-Targeted Antioxidants in a Small-Cell Carcinoma of the Ovary of Hypercalcemic Type and in Type 1 and Type 2 Endometrial Cancer” (Biomedicines, 2022)
